Assay results as given in paper PMC6286318, “Structure-function-guided exploration of the antimicrobial peptide polybia-CP identifies activity determinants and generates synthetic therapeutic candidates” (Communications Biology, 2018).
Entries after “also recorded” stand apart in the source; their conditions may differ. No end group written: not given here.

Key:
[1] = Stability assay, resistance to degradation in fetal bovine serum; format: in vitro ADME; details: GIBCO fetal bovine serum, RP-LC peak area, three independent replicates; for Resistance to protease-mediated degradation in fetal bovine serum (in words): followed up to 6 h
Method: Fig. 6 Hemolysis and resistance to protease-mediated degradation of engineered peptides. a Schematic of experimental design and hemolytic assay results of Pol-CP-NH2 and derivatives, where hemolytic activity was evaluated by incubating the peptides (0.1–100 μmol L^−1) with human red blood cells in PBS at room temperature for 1 h. Experiments were performed in three independent replicates. b Resistance to degradation of Pol-CP-NH2 and analogs exposed to fetal bovine serum (FBS) proteases for 6 h. Experiments were done in three independent replicates (statistical significance was determined using one-way ANOVA, *p < 0.039, error bars represent standard deviation values)
The resistance to degradation assay is detailed by Powell et al.[89], and peptides were exposed to GIBCO fetal bovine serum. The reaction kinetics were followed by reverse-phase liquid chromatography and the percentage of remaining peptide was calculated by integrating the peptide peak area.

[2] = Circular dichroism spectroscopy, helical fraction (fH); format: physicochemical; details: CD
Method: Fig. 3 Physicochemical features and structure of Pol-CP-NH2 and Ala-scan analogs. a Circular dichroism spectra of Pol-CP-NH2 and Ala-scan derivatives at 50 µmol L^−1 in water, PBS (pH 7.4) and TFE/Water (3:2, v/v) showing peptides transition from unstructured in water to helically structured in TFE/water. Circular dichroism spectra were recorded after four accumulations at 20 °C, using a 1 mm path length quartz cell, between 260 and 190 nm at 50 nm min^-1, with a bandwidth of 0.5 nm. b MIC (µmol L^−1) average for each peptide against the first set of bacteria (E. coli BL21, P. aeruginosa PA01 and PA14, and S. aureus ATCC12600) in three independent replicates vs. fH in TFE/Water solution, where blue boxes represent peptides with lower activity and red boxes show peptides with higher activity compared to the wild-type. Optimal activity is reached in most of the cases for fH values higher than the wild-type
Fig. 4 Physicochemical features and structure of Pol-CP-NH2 and second-generation analogs. Circular dichroism spectra of the peptides at 50 µmol L^−1 in water, MeOH/Water (1:1, v/v), PBS (pH 7.4), POPC (10 mmol L^−1), POPC:DOPE (3:1, 10 mmol L^−1), POPC:POPG (3:1, 10 mmol L^−1), SDS (20 mmol L^−1), TFE/Water (2:3, 3:2, 4:1, v/v) showing peptides transition from unstructured in water to helically structured in TFE/water. Circular dichroism spectra were recorded after four accumulations at 20 °C, using a 1 mm path length quartz cell, between 260 and 190 nm at 50 nm min^−1, with a bandwidth of 0.5 nm
Circular dichroism experiments were performed on a J-815 Circular Dichroism Spectropolarimeter (Jasco). Measurements conditions are described by Torres et al.[84] Peptides at 50 μmol L^−1 were analyzed in ten different environments: water, PBS (pH 7.4), methanol/water (1:1; v-v), TFE/Water (2:3, 3:2 and 4:1; v-v), 10 mmol L^−1 POPC, 10 mmol L^−1 POPC:DOPE (3:1) and 10 mmol L^−1 POPC:POPG (3:1). Vesicles were prepared according to Torres et al.[35]. A Fourier transform filter was applied to minimize background effects.

[3] = RP-HPLC retention time (correlated with hydrophobicity); format: physicochemical; details: chromatographic, RP-HPLC Supelcosil C18 (4.6 x 150 mm), 60 Å, 5 μm; A 0.1% TFA/H2O, B 0.1% TFA in 90% ACN/H2O; 5-95% B in 30 minutes; 1.0 mL min-1; 220 nm; correlated with Heliquest hydrophobicity
Method: First, theoretical values of physicochemical features such as hydrophobicity, hydrophobic moment, and net positive charge were calculated, and helical wheels were generated using the Heliquest webserver[31] (Table 1 and Supplementary Figure 1). Hydrophobicity values produced by the server were correlated with retention times obtained by RP-HPLC analyses (Supplementary Table 1), confirming the accuracy of the computational predictions. Next, peptides were synthesized and tested against the Gram-negative bacteria Escherichia coli and Pseudomonas aeruginosa, as well as against the Gram-positive bacterium Staphylococcus aureus. We obtained slightly different results from those reported by Souza et al.[30], who described activity against Gram-positive bacteria but poor activity against Gram-negative species. […] MIC results were confirmed by colony-forming unit (CFU) counts of bacteria after one day of exposure to the peptides (Supplementary Figure 2).
Supplem enta r y Ta b le 1. Summary of Pol-CP-NH2 and desi gned anal ogs.
Label Pep t id e Sequence Molecular Ob s erv ed Pu rit y HPLC HC50 MIC SIe Cyt oto xic it y
Weight Molecular (%)b Retention (µmo l L-1)d Av er a g e (µmo l L-1)
(D a) Weight (D a)a Time (min)c (µmo l L-1)
aLC/ESI-MS data were obtained on a Model 6130 Infinity mass spectrometer coupled to a Model 1260 HPLC system (Agilent), using a Phenomenex Gemini C18 column (2.0 […]

[4] = tested on: HEK293 human embryonic kidney cells; assay: Cytotoxicity assay (MTS); format: cell-based; details: for Cytotoxic concentration relative to MIC against P. aeruginosa: HEK293, 48 h, MTS, compared with MIC against P. aeruginosa; for Cytotoxicity (concentration showing cytotoxic activity): HEK293, 50,000 cells per well, peptides 0-64 μmol L-1, 37 °C, 48 h, MTS assay, three independent replicates
Method: Fig. 7 Cytotoxicity of engineered peptides. a Schematic of the experimental design for cytotoxicity assays of Pol-CP-NH2 and derivatives against HEK293 human embryonic kidney cells. Briefly, cells were cultured in DMEM medium supplemented with FBS and antibiotics at 37 °C and 5% CO2 and b results obtained by seeding HEK293 50,000 cells and incubating with peptides’ solution (0–64 μmol L^−1) at 37 °C for 48 h. Cell viability was measured by MTS assay. All experiments were performed in independent triplicates (heat map values represent mean values of three independent replicates)
Human embryonic kidney 293 (HEK 293) cells were cultured in Dulbecco’s Modified Eagle Medium suplemented with 10% Fetal Bovine Serum and 1% penicillin-streptomycin at 37 °C in 5% CO2. The day before treatment, 50,000 HEK 293 cells were seeded into each well in 96-well plates. The peptides were added at concentrations ranging from 0 to 64 μmol L^−1 and 48 h after exposure, cell viability was measured by means of MTS (dimethylthiazol-carboxymethoxyphenyl-sulfophenyl-tetrazolium) assay. Experiments were performed in three independent replicates for each condition.

[5] = Toxicity to mice in the skin infection model (body weight); format: in vivo; details: infected mice treated with 64 μmol L-1 peptide; body weight normalized by non-infected mice
Method: Fig. 8 In vivo activity of Pol-CP-NH2 and its analogs. a Schematic of the experimental design. Briefly, the back of mice was shaved and an abrasion was generated to damage the stratum corneum and the upper layer of the epidermis. Subsequently, an aliquot of 50 μL containing 5 × 10^7 CFU of P. aeruginosa in PBS was inoculated over each defined area. […] Four animals per group were euthanized and the area of scarified skin was excised two days post-infection b homogenized using a bead beater for 20 min (25 Hz), and serially diluted for CFU quantification (statistical significance was determined using two-way ANOVA followed by Dunnett’s test, ****p < 0.0001). c Mouse body weight measurements throughout the experiment normalized by the body weight of non-infected mice.
The anti-infective activity of peptides against P. aeruginosa strain PA14 in a mouse model was assessed according to Pane et al.[90] CD-1 IGS female mice (six-weeks-old) were used and maintained in accordance with the Guide for the Care and Use of Laboratory Animals in an AAALAC-accredited facility. All procedures were approved by the MIT’s Institutional Animal Care and Use Committee (IACUC), protocol number 1016-064-19. Two independent experiments were performed with 4 mice per group in each condition. Statistical significance was assessed using a one-way ANOVA.

GLGTILGLLKSL-NH2 [Peptide 20, [Gly]^1-Pol-CP-NH2]
Resistance to protease-mediated degradation in fetal bovine serum (in words) [1]: degraded in a few minutes

ILETKLGLLKSE-NH2 [Peptide 19, [Glu]^3-[Lys]^5-[Glu]^12-Pol-CP-NH2]
Helical fraction fH, MeOH/Water (1:1) ([2]; peptide 50 µmol L-1, MeOH/Water 1:1 v/v, 20 °C): 0.02
Helical fraction fH, PBS ([2]; peptide 50 µmol L-1, PBS pH 7.4, 20 °C): 0.03
Helical fraction fH, POPC ([2]; peptide 50 µmol L-1, POPC 10 mmol L-1 vesicles, 20 °C): 0
Helical fraction fH, POPC/DOPE (3:1) ([2]; peptide 50 µmol L-1, POPC:DOPE 3:1 mol:mol 10 mmol L-1 vesicles, 20 °C): 0.03
Helical fraction fH, POPC/POPG (3:1) ([2]; peptide 50 µmol L-1, POPC:POPG 3:1 mol:mol 10 mmol L-1 vesicles, 20 °C): 0.04
Helical fraction fH, SDS ([2]; peptide 50 µmol L-1, SDS 20 mmol L-1 micelles, 20 °C): 0.13
Helical fraction fH, TFE/Water (2:3) ([2]; peptide 50 µmol L-1, TFE/Water 2:3 v/v, 20 °C): 0.24
Helical fraction fH, TFE/Water (3:2) ([2]; peptide 50 µmol L-1, TFE/Water 3:2 v/v, 20 °C): 0.21
Helical fraction fH, TFE/Water (4:1) ([2]; peptide 50 µmol L-1, TFE/Water 4:1 v/v, 20 °C): 0.31
Helical fraction fH, Water ([2]; peptide 50 µmol L-1, water, 20 °C, 1 mm cell): 0.05
HPLC Retention Time [3]: 9.2 min

ILGKILGLLKSL-NH2 [Peptide 15, [Lys]^4-Pol-CP-NH2]
Resistance to protease-mediated degradation in fetal bovine serum (in words) [1]: increased resistance to protease-mediated degradation
remaining at 6 h ([1]; six hours of exposure, read-out: Remaining peptide after exposure to fetal bovine serum): ~50%
Cytotoxic concentration relative to MIC against P. aeruginosa [4]: two-fold to four-fold higher than their MICs

ILGTILGLLKSL-NH2 [WT, Pol-CP-NH2, reference compound]
Toxicity to mice / body weight, in words [5]: did not change abruptly
Cytotoxicity (concentration showing cytotoxic activity) ([4]; listed as wild-type peptide): 32 µmol/L

ILGTILKLLKSL-NH2 [Peptide 16, [Lys]^7-Pol-CP-NH2]
Resistance to protease-mediated degradation in fetal bovine serum (in words) [1]: increased resistance to protease-mediated degradation
Toxicity to mice / body weight, in words [5]: did not change abruptly; also recorded: non-toxic to mice
Cytotoxicity (concentration showing cytotoxic activity) [4]: 16 µmol/L
Cytotoxic concentration relative to MIC against P. aeruginosa [4]: two-fold to four-fold higher than their MICs
